pKi: −log10 of the molar value.
Molecular target: Muscarinic acetylcholine receptor M3 (Homo sapiens, UniProt P20309)
Test: Binding affinity for human cloned Muscarinic M3 receptors

Chain of Muscarinic acetylcholine receptor M3 (P20309 whole entry): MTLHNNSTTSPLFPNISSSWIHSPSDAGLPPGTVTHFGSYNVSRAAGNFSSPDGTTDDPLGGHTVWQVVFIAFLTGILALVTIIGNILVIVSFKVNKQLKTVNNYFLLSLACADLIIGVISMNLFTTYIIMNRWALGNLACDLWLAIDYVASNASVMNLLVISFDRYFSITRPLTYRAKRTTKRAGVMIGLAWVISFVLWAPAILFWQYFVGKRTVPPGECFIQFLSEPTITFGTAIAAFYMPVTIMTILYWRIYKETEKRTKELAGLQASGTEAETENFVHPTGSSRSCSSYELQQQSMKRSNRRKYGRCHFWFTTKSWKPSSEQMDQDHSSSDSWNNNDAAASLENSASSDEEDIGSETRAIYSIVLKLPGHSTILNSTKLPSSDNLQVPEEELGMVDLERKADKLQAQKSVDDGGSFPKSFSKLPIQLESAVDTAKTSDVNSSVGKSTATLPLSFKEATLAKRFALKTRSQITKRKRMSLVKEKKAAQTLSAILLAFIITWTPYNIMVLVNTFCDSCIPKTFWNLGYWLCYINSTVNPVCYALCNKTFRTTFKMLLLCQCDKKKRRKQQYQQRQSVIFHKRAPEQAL

Work on `CC(C)=CCCN1CCC(NC(=O)[C@](O)(c2ccccc2)C2CCCC2)CC1` yielded a pKi of 8.38.
